Like-named read-outs stand apart in the source and are kept apart here. No end group written: not given here.
Tests used:
[1] = system: experimental auto-immune encephalomyelitis (EAE) development in mice; details: Example 4; 16 mice per group
Text: (§1) Example 4: Effect of the therapeutic administration of an immunogenic peptide comprising a human MOG201-212 MHCII T cell epitope linked to a KHCPYC oxidoreductase motif in combination with dimethyl fumarate (BG-12, […]™) on experimental auto-immune encephalomyelitis (EAE) development in mice.
The study used a total of 96 female C57BL/6 mice (Taconic Biosciences, 9 weeks old on Day 0). Mice were acclimated for 7 days prior to the first injection. Mice were assigned to groups in a balanced manner to achieve similar average weight across the groups at the start of the study.
(§2) Treatment 1 was administered once on each of the days indicated in Table 5, s.c., at a volume of 0.05 mL/site, each mouse receiving injection at two sites, for a total of 0.1 mL/mouse/dosing day. IMCY-0189 or P4 peptide total dose was 30 μg per administration.
(§3) BG-12 was dosed at 100 mg/kg.
(§4) All dosing were done at the same time (+/−1 hour) each dosing day. For the BID groups there were no less than 10 and no more than 14 hours between doses.
Lyophilized immunogenic peptide P4 with the sequence […] (SEQ ID NO: 176), comprising an oxidoreductase motif KHCPYC (SEQ ID NO: 77), a linker VRY, a human Myelin Oligodendrocyte Glycoprotein (MOG201-212) MHCII T cell epitope […] (SEQ ID NO: 165) and a flanking sequence TLFKK (SEQ ID NO: 267) (Smart Bioscience) was solubilized immediately before use. Lyophilized P4 was thawed at room temperature for 10 minutes, resuspended in Na Acetate buffer 50 mM NaCl 0.9% pH 5.4 and incubated at room temperature for 10 minutes. Reconstituted peptide was then mixed with Imject™ Alum Adjuvant before injection.
(§5) Treatment 2 was prepared as described in example 2.
EAE induction, scoring and statistical analysis were performed as described in example 2.
(§6) EAE development was evaluated by comparing clinical EAE readouts for all groups to the negative control (Saline/Vehicle) group.

[2] = system: experimental auto-immune encephalomyelitis (EAE) development in mice; details: Example 3; for mice died in group: 16 mice per group; for disease onset: peptide 30 μg/Alum s.c. days 4, 9, 14, 19, BG-12 100 mg/kg p.o. BID days 0 to 27; for disease onset / AUC (area under the curve) of EAE scores / MMS (mean maximal score) / end score (clinical EAE score 0-5): vs negative control
Text: as §1, with “3:” for “4:”, “MOG35-55” for “human MOG201-212”, “KCRC (SEQ ID NO: 65) or KCRPYC (SEQ ID NO: 84)” for “KHCPYC”
The study used a total of 128 female C57BL/6 mice (Taconic Biosciences, 9 weeks old on Day 0). Mice were acclimated for 7 days prior to the first injection. Mice were assigned to groups in a balanced manner to achieve similar average weight across the groups at the start of the study.
as §2, with “4,” for “5,”, “IMCY-0189 (CXXC oxidoreductase motif, IMCY-0453 (CXC oxidoreductase motif)” for “IMCY-0189”, “IMCY-0455 (CXXXC oxidoreductase motif)” for “P4”
as §3, §4
(§7) (SEQ ID NO: 266), comprising an oxidoreductase motif KCRC (SEQ ID NO: 65), a linker GW, a murine Myelin Oligodendrocyte Glycoprotein (MOG35-55) MHCII T cell epitope […] (SEQ ID NO: 169) and a flanking sequence HLYR (SEQ ID NO: 186) (Smart Bioscience) was solubilized immediately before use. Lyophilized IMCY-0453 was thawed at room temperature for 10 minutes, resuspended in Na Acetate buffer 50 mM NaCl 0.9% pH 5.4 and incubated at room temperature for 10 minutes. Reconstituted peptide was then mixed with Imject™ Alum Adjuvant before injection.
as §7, with “268),” for “266),”, “KCRPYC” for “KCRC”, “84),” for “65),”, “IMCY-0455” for “IMCY-0453”
as §5
EAE induction, scoring and statistical analysis were performed as described in example
as §6

[3] = system: experimental auto-immune encephalomyelitis (EAE) development in mice; assay: Example 3: serum neurofilament light (NF-L) levels in EAE mice; assay type: in vivo, female C57BL/6 mice; details: Day 28 serum, vs negative control
Description: On Day 28, blood was collected from all mice into gel clot activator tubes and allowed to clot at room temperature for ˜30 minutes. Blood is then centrifuged at ˜10000 g for 5 minutes. Serum was transferred into Eppendorf tubes and stored at −80° C. until shipment to Quanterix™. Serum Neurofilament light (NF-L) protein levels were quantified using Simoa® NF-light Advantage kit as described in example 1.

[4] = system: experimental auto-immune encephalomyelitis (EAE) development in mice; details: Example 2, 16 mice per group
Text: Example 2: Effect of the therapeutic administration of an immunogenic peptide comprising a MOG35-55 MHCII T cell epitope linked or not to an HCPYC oxidoreductase motif in combination with dimethyl fumarate (BG-12, […]™) on experimental auto-immune encephalomyelitis (EAE) development in mice.
The study used a total of 96 female C57BL/6 mice (Taconic Biosciences, 10 weeks old on Day 0). Mice were acclimated for 14 days prior to the first injection. Mice were assigned to groups in a balanced manner to achieve similar average weight across the groups at the start of the study.
Treatment 1 was administered once on each of the days indicated in Table 3, s.c., at a volume of 0.05 mL/site, each mouse receiving injection at two sites, for a total of 0.1 mL/mouse/dosing day. IMCY-0189 or MOG35-55 peptide total dose was 30 μg per administration.
as §3, §4
Lyophilized mouse MOG35-55 peptide with the sequence […] (SEQ ID NO:205), comprising the mouse Myelin Oligodendrocyte Glycoprotein (MOG35-55) MHCII T cell epitope […] (SEQ ID NO:169), was solubilized immediately before use. Lyophilized MOG35-55 peptide was thawed at room temperature for 10 minutes, resuspended in Na Acetate buffer 50 mM NaCl 0.9% pH 5.4 and incubated at room temperature for 10 minutes. Reconstituted MOG35-55 peptide was then mixed with Imject™ Alum Adjuvant before injection. Note that the positions 35 to 55 refer to the mature protein, i.e. after cleavage of the signal peptide (AA 1-29), defined by SEQ ID NO: 208. In the full-length amino acid sequence of MOG (SEQ ID NO: 184), said peptide would be at positions 64-84.
Lyophilized IMCY-0189 was thawed at room temperature for 10 minutes, resuspended in Na Acetate buffer 50 mM NaCl 0.9% pH 5.4 and incubated at room temperature for 10 minutes. Reconstituted peptide was then mixed with Imject™ Alum Adjuvant before injection.
For Treatment 2, vehicle was 0.5% HPMC, 0.2% Tween 20, and 50 mM citrate buffer at pH 4. BG-12 (Santa Cruz Biotechnology, sc-239774) and was prepared at least every 2 weeks. At each preparation the required amount of BG-12 was weighed out into a mortar and triturated with a pestle. Vehicle was then added in small increments and mixed until the final volume was reached. The material was then vortexed and sonicated in a water bath until a homogeneous suspension was obtained. Formulated BG-12 was stored at 4° C., stirring continuously.
EAE induction, scoring and statistical analysis were performed as described in example 1.
as §6

Molecule	mice died in group [1]	mice died in group [2]	disease onset [2]	AUC (area under the curve) of EAE scores [2]	MMS (mean maximal score) [2]	end score (clinical EAE score 0-5) [2]	serum NF-L levels [3]	mice died in group [4]	mice died in group ([4]; listed as MOG35-55/Vehicle)
CC[C@H](C)[C@H](NC(=O)[C@H](CCCCN)NC(=O)[C@H](Cc1c[nH]c2ccccc12)NC(=O)[C@H](CO)NC(=O)[C@@H]1CCCN1C(=O)[C@@H](NC(=O)[C@H](CCCNC(=N)N)NC(=O)[C@H](CC(C)C)NC(=O)[C@H](Cc1ccccc1)NC(=O)[C@H](Cc1ccc(O)cc1)NC(=O)[C@H](CCCNC(=N)N)NC(=O)[C@@H](NC(=O)[C@H](CS)NC(=O)[C@H](Cc1ccc(O)cc1)NC(=O)[C@@H]1CCCN1C(=O)[C@H](CS)NC(=O)[C@H](Cc1c[nH]cn1)NC(=O)[C@@H](N)CCCCN)C(C)C)C(C)C)C(=O)N[C@H](C(=O)N[C@@H](CC(C)C)C(=O)N[C@@H](Cc1ccccc1)C(=O)N[C@@H](CCCCN)C(=O)N[C@@H](CCCCN)C(=O)O)[C@@H](C)O [P4]	No mice died								
KCRCGWYRSPFSRVVHLYR [IMCY-0453]		1 mice	statistically significantly improved	statistically significantly improved	statistically significantly improved	statistically significantly improved	statistically significant reduced NF-L levels		
KCRPYCGWYRSPFSRVVHLYR [IMCY-0455]		1 mice	statistically significantly improved	statistically significantly improved	statistically significantly improved	statistically significantly improved	statistically significant reduced NF-L levels		
MEVGWYRSPFSRVVHLYRNGK [MOG35-55 peptide]								No mice died	2 mice

Source: patent publication US20230172894A1, “COMBINATION TREATMENT FOR FUMARATE-RELATED DISEASES” (IMCYSE SA, priority 2020, published 2023)
